Source: US20260191968A1, “PROTAC DEGRADERS OF MLLT1 AND/OR MLLT3” (DARK BLUE THERAPEUTICS LTD, priority 2024, published 2026)
pIC50: −log10 of the molar value.

How the values were obtained:
MLLT1 = biological target: T1, MLLT1 (Homo sapiens, UniProt Q03111); test: MLLT1 degradation assay in MV4-11 cells (JESS chemiluminescent detection), three concentrations, 24 h; format: cell-based; details: with respect to DMSO control
T1 construct: host or cells: MV4-11
T1 sequence (Q03111 1-559): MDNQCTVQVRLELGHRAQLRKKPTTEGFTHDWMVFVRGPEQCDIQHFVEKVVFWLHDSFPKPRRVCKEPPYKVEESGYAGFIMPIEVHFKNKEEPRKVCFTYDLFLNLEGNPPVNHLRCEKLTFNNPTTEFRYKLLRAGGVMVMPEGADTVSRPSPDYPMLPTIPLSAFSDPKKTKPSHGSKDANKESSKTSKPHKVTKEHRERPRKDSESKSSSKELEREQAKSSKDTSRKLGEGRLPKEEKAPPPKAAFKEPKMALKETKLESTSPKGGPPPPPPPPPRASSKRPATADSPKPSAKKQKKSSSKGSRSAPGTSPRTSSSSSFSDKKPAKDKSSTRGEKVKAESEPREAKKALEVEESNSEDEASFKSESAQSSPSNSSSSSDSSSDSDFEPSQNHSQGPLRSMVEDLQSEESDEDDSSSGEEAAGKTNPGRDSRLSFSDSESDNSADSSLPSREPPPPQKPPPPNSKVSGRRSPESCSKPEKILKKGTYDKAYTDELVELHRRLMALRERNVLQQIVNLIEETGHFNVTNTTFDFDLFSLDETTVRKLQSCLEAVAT
Outline: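 MV4-11 cells treated 24 h at 37° C, 5% CO2 with 1000, 100 and 10 nM compound (0.1% DMSO final). MLLT1 quantified by automated capillary chemiluminescent immunodetection; band peak area expressed as % degradation relative to DMSO control.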

MV4-11 cells = test: MV4-11 cellular proliferative assay, Assay Format B (CTG 2.0, 168 h); format: cell-based; details: Homo sapiens, 168 h (7 days), CTG 2.0, read-out: IC50 (MV4-11 cellular proliferative assay, Assay format B)
Protocol: MV4-11 cells at a confluency of ~50-80% was used for cell growth assay. 600 cells/well in a 384-well opaque cell culture plate (6007680; Perkin Elmer) were seeded in 40 μL of complete medium (IMDM+10% FBS+1X Penicillin-Streptomycin). Cells were incubated overnight at 37° C., 5% CO2. 10 mM DMSO stocks were prepared, cells were treated with 10 concentrations of test compounds starting from 1 uM or 100 nM, 3-fold dilution in 10 uL (5×concentration) of complete medium. Final DMSO concentration was 0.3%. Culture plates were centrifuged at 40×g, 30s. Cells were incubated with compounds for 168 h (7 days). After 7 days, 20 uL CTG 2.0 reagent (G9242; Promega) was added per well and luminescence reading was taken in Envision Xcite 2105 multimode plate reader. Data was analyzed in GraphPad Prism 10.0 and data was shown as % viability with respect to DMSO control and dose-response curves were generated using four parameter logistic regression. Assay quality was determined by z-factor calculation using positive and negative controls.

Row | SMILES | MLLT1% Degradation @ 0.01 μM (MLLT1) | MLLT1% Degradation @ 0.1 μM (MLLT1) | MLLT1% Degradation @ 1 μM (MLLT1) | pIC50 (MV4-11 cells)
1 | CN1CCC[C@@H]1c1cc2cnc(NC(=O)c3ccc(OC4CCN(CC5CCN(c6cccc7c6CN(C6CCC(=O)NC6=O)C7=O)CC5)CC4)cc3)cc2[nH]1 (stereo in doubt) [Example 122, 4-((1-((1-(2-((rel-S)-2,6-dioxopiperidin-3-yl)-1-oxoisoindolin-4-yl)piperidin-4-yl)methyl)piperidin-4-yl)oxy)-N-(2-((R)-1-methylpyrrolidin-2-yl)-1H-pyrrolo[3,2-c]pyridin-6-yl)benzamide] | A (Category A: A ≥ 75% degradation) | A (Category A: A ≥ 75% degradation) | A (Category A: A ≥ 75% degradation) | ≥ 7.00
2 | CN1CCC[C@@H]1c1[nH]c2cc(NC(=O)c3ccc(OCCC4CCN(c5cccc6c5CN(C5CCC(=O)NC5=O)C6=O)CC4)cc3)ncc2c1Cl (stereo in doubt) [Example 161, N-(3-chloro-2-((R)-1-methylpyrrolidin-2-yl)-1H-pyrrolo[3,2-c]pyridin-6-yl)-4-(2-(1-(2-((rel-S)-2,6-dioxopiperidin-3-yl)-1-oxoisoindolin-4-yl)piperidin-4-yl)ethoxy)benzamide] | A (Category A: A ≥ 75% degradation) | A (Category A: A ≥ 75% degradation) | A (Category A: A ≥ 75% degradation) | ≥ 7.00
3 | CN1CCC[C@@H]1c1cc2cnc(NC(=O)c3ccc(OCCC4CCN(c5cccc6c5CN(C5CCC(=O)NC5=O)C6=O)CC4)cc3F)cc2[nH]1 (stereo in doubt) [Example 172, 4-(2-(1-(2-((rel-S)-2,6-dioxopiperidin-3-yl)-1-oxoisoindolin-4-yl)piperidin-4-yl)ethoxy)-2-fluoro-N-(2-((R)-1-methylpyrrolidin-2-yl)-1H-pyrrolo[3,2-c]pyridin-6-yl)benzamide] | A (Category A: A ≥ 75% degradation) | A (Category A: A ≥ 75% degradation) | A (Category A: A ≥ 75% degradation) | ≥ 7.00
4 | CN1CCC[C@@H]1c1cc2cnc(NC(=O)c3ccc(OCC#Cc4cccc5c4CN(C4CCC(=O)NC4=O)C5=O)nc3)cc2[nH]1 (stereo partly drawn) [Example 2, 6-((3-(2-(2,6-dioxopiperidin-3-yl)-1-oxoisoindolin-4-yl)prop-2-yn-1-yl)oxy)-N-(2-((R)-1-methylpyrrolidin-2-yl)-1H-pyrrolo[3,2-c]pyridin-6-yl)nicotinamide] | A (Category A: A ≥ 75% degradation) | A (Category A: A ≥ 75% degradation) | A (Category A: A ≥ 75% degradation) | ≥ 7.00
5 | CN1CCC[C@@H]1c1cc2cnc(NC(=O)c3ccc(N4CCN(CC#Cc5cccc6c5CN(C5CCC(=O)NC5=O)C6=O)CC4)nc3)cc2[nH]1 (stereo partly drawn) [Example 6, 6-(4-(3-(2-(2,6-dioxopiperidin-3-yl)-1-oxoisoindolin-4-yl)prop-2-yn-1-yl)piperazin-1-yl)-N-(2-((R)-1-methylpyrrolidin-2-yl)-1H-pyrrolo[3,2-c]pyridin-6-yl)nicotinamide] | A (Category A: A ≥ 75% degradation) | A (Category A: A ≥ 75% degradation) | B (Category B: 50% ≤ B < 75% degradation) | ≥ 7.00
6 | CN1CCC[C@@H]1c1cc2cnc(NC(=O)c3ccc(CCCCC#Cc4cccc(C(=O)N[C@H]5CCC(=O)NC5=O)n4)cc3)cc2[nH]1 [Example 7, N—((S)-2,6-dioxopiperidin-3-yl)-6-(6-(4-((2-((R)-1-methylpyrrolidin-2-yl)-1H-pyrrolo[3,2-c]pyridin-6-yl)carbamoyl)phenyl)hex-1-yn-1-yl)picolinamide] | A (Category A: A ≥ 75% degradation) | A (Category A: A ≥ 75% degradation) | A (Category A: A ≥ 75% degradation) | ≥ 7.00
7 | CN1CCC[C@@H]1c1cc2cnc(NC(=O)c3ccc(CCCCC#Cc4cccc(N5CCC(=O)NC5=O)n4)cc3)cc2[nH]1 [Example 9, (R)-4-(6-(6-(2,4-dioxotetrahydropyrimidin-1(2H)-yl)pyridin-2-yl)hex-5-yn-1-yl)-N-(2-(1-methylpyrrolidin-2-yl)-1H-pyrrolo[3,2-c]pyridin-6-yl)benzamide] | A (Category A: A ≥ 75% degradation) | A (Category A: A ≥ 75% degradation) | A (Category A: A ≥ 75% degradation) | ≥ 7.00
8 | CN1CCC[C@@H]1c1cc2cnc(NC(=O)c3ccc(CCCC#Cc4cccc5c4CN(C4CCC(=O)NC4=O)C5=O)nc3)cc2[nH]1 (stereo partly drawn) [Example 12, 6-(5-(2-(2,6-dioxopiperidin-3-yl)-1-oxoisoindolin-4-yl)pent-4-yn-1-yl)-N-(2-((R)-1-methylpyrrolidin-2-yl)-1H-pyrrolo[3,2-c]pyridin-6-yl)nicotinamide] | B (Category B: 50% ≤ B < 75% degradation) | A (Category A: A ≥ 75% degradation) | A (Category A: A ≥ 75% degradation) | ≥ 7.00
9 | CN1CCC[C@@H]1c1[nH]c2cc(NC(=O)CCCCCCC#Cc3cccc4c3CN(C3CCC(=O)NC3=O)C4=O)ncc2c1Cl (stereo partly drawn) [Example 13, N-(3-chloro-2-((R)-1-methylpyrrolidin-2-yl)-1H-pyrrolo[3,2-c]pyridin-6-yl)-9-(2-(2,6-dioxopiperidin-3-yl)-1-oxoisoindolin-4-yl) non-8-ynamide] | A (Category A: A ≥ 75% degradation) | A (Category A: A ≥ 75% degradation) | A (Category A: A ≥ 75% degradation) | ≥ 7.00
10 | CN1CCC[C@@H]1c1cc2cnc(NC(=O)c3cccc(C4CCN(c5cccc6c5C(=O)N(C5CCC(=O)NC5=O)C6=O)CC4)c3)cc2[nH]1 (stereo partly drawn) [Example 14, 3-(1-(2-(2,6-dioxopiperidin-3-yl)-1,3-dioxoisoindolin-4-yl)piperidin-4-yl)-N-(2-((R)-1-methylpyrrolidin-2-yl)-1H-pyrrolo[3,2-c]pyridin-6-yl)benzamide] | B (Category B: 50% ≤ B < 75% degradation) | A (Category A: A ≥ 75% degradation) | A (Category A: A ≥ 75% degradation) | ≥ 7.00
11 | CN1CCC[C@@H]1c1cc2cnc(NC(=O)c3ccc(N4CCC(CC#Cc5cccc6c5CN(C5CCC(=O)NC5=O)C6=O)CC4)nc3)cc2[nH]1 (stereo partly drawn) [Example 16, 6-(4-(3-(2-(2,6-dioxopiperidin-3-yl)-1-oxoisoindolin-4-yl)prop-2-yn-1-yl)piperidin-1-yl)-N-(2-((R)-1-methylpyrrolidin-2-yl)-1H-pyrrolo[3,2-c]pyridin-6-yl)nicotinamide] | A (Category A: A ≥ 75% degradation) | A (Category A: A ≥ 75% degradation) | B (Category B: 50% ≤ B < 75% degradation) | ≥ 7.00
12 | CN1CCC[C@@H]1c1cc2cnc(NC(=O)c3ccc(N4CCC(C#Cc5cccc6c5CN(C5CCC(=O)NC5=O)C6=O)CC4)nc3)cc2[nH]1 (stereo partly drawn) [Example 17, 6-(4-((2-(2,6-dioxopiperidin-3-yl)-1-oxoisoindolin-4-yl)ethynyl)piperidin-1-yl)-N-(2-((R)-1-methylpyrrolidin-2-yl)-1H-pyrrolo[3,2-c]pyridin-6-yl)nicotinamide] | A (Category A: A ≥ 75% degradation) | A (Category A: A ≥ 75% degradation) | A (Category A: A ≥ 75% degradation) | ≥ 7.00
13 | CN1CCC[C@@H]1c1cc2cnc(NC(=O)c3ccc(-c4cnn(CCCCC#Cc5cccc6c5CN(C5CCC(=O)NC5=O)C6=O)c4)cc3)cc2[nH]1 (stereo partly drawn) [Example 59, 4-(1-(6-(2-(2,6-dioxopiperidin-3-yl)-1-oxoisoindolin-4-yl)hex-5-yn-1-yl)-1H-pyrazol-4-yl)-N-(2-((R)-1-methylpyrrolidin-2-yl)-1H-pyrrolo[3,2-c]pyridin-6-yl)benzamide] | A (Category A: A ≥ 75% degradation) | A (Category A: A ≥ 75% degradation) | B (Category B: 50% ≤ B < 75% degradation) | ≥ 7.00
